Measurements from patent US20240189239A1, “PROCESS FOR CONTINUOUS HOT MELT GRANULATION OF LOW SOLUBLE PHARMACEUTICALS” (Merck Patent GmbH, priority 2021, published 2024).

Assay: Dissolution measurement of granules of Example 1 (paddle, 900 ml SGFsp, 37° C.)
Format: physicochemical
Conditions: paddle 75 rpm, 50 mg ITZ, up to 120 min
Procedure: For measuring the dissolution, granules as obtained in Example 1 were used directly without further processing. 3 samples per temperature setup were used. 500 mg 10% ITZ granulate were weighted (Mettler Toledo Delta Range XP105) which equals 50 mg ITZ API.
Dissolution was performed using a Sotax AT7 smart with an online Photometer Specord 200+ from Analytik Jena. As a medium 900 ml SGF.sp (20 g NaCl, 800 ml 0.1 M HCl ad 10.0 L VE-water) at 37° C.±0.5 was used. The following settings were used: Rotation speed 75 rpm; Paddle method; Pre-filter: Glass Mircofiber Filters GE Whatmann GF/D Diameter 25 mm, 5 mm HELMA flow-through cuvette, Sampling Points: 5,20,35,50,60,120 Min.
The granulation with polyvinyl alcohol at a temperature between 140° C. to 170° C. increases the solubility of the compound (lines 2 to 6). At 175° C. the solubility suddenly increases. With higher temperature solubility is further enhanced. An immediate release can be observed for temperatures of 180° C. to 190° C. (lines 8 to 10). With a further temperature increase above the melting temperature of PCA (line 11; 200° C.) the drug release rates are delayed.

**Q.** With `CCC(C)n1ncn(-c2ccc(N3CCN(c4ccc(OCC5COC(Cn6cncn6)(c6ccc(Cl)cc6Cl)O5)cc4)CC3)cc2)c1=O` (stereo not shown) [crystalline itraconazole, itraconazole] as the molecule, how does the “solubility / drug release of itraconazole in the release medium (FIG. 3)” value read?
**A.** Its value is “very low solubility”.
